IC50 data for seven compounds are collected here from patent US20260308185A1, “STAT DEGRADERS AND USES THEREOF” (Recludix Pharma, Inc., priority 2023, published 2026).

As usually defined, the IC50 is the midpoint of a concentration-inhibition curve.

In experiment [1] the test system is pSTAT6 (pY641-STAT6) in PBMC. The experiment is described as follows: MSD-pSTAT-PBMC Assay (pSTAT6). To be noted: compound 3 hrs, then 1 ng/mL IL-4 for 10 min. The class given is cell-based. From the text: Cryopreserved Peripheral Blood Mononuclear Cells (PBMC) are from AllCells. Recombinant Human […] and IL-6 are from Peprotech. Mouse monoclonal anti-STAT3 antibody, rabbit monoclonal anti-pY705-STAT3 antibody, rabbit monoclonal Anti-pY641-STAT6 antibody, and lysis buffer are from Cell Signaling Technology (CST). Mouse monoclonal anti-STAT6 antibody is from BioLegend. Assay plates, blocker, and anti-rabbit secondary antibody are from Meso Scale Discovery (MSD).
Cryopreserved PBMCs were thawed out and allowed to recover overnight in IMDM+10% heat-inactivated FBS prior to plating 50,000 (STAT3) or 25,000 (STAT6) cells per well in 96-well U-bottom tissue culture plates. Cells were treated with compound for 3 hrs, then stimulated with 10 ng/mL IL-6 (STAT3) or 1 ng/mL IL-4 (STAT6) for 10 min. Cells were then spun down and washed with ice-cold PBS prior to lysing the cell pellet with 1× lysis buffer (CST) with 1× HALT protease and phosphatase inhibitor cocktail (Thermo). Lysates were transferred to and incubated overnight at 4° C. with shaking in QuickPlex 96-well high bind assay plates (MSD) pre-coated overnight with 30 μL per well of 0.6 μg/mL mouse monoclonal anti-STAT3 antibody (STAT3) or 2 μg/mL mouse monoclonal anti-STAT6 antibody (STAT6) in 1×PBS, and pre-blocked for 1 hour with 3% Blocker-A (MSD). Captured protein in the assay plates were then washed and probed with 25 μL per well of 0.25 μg/ml rabbit monoclonal anti-pY705-STAT3 antibody (STAT3) or 0.18 μg/ml rabbit monoclonal Anti-pY641-STAT6 antibody (STAT6) in 1% Blocker-A for 1 hour at room temperature with shaking, then washed and probed with 25 ul per well of 1 ug/ml Sulfo-TAG Labeled Goat Anti-Rabbit Antibody (MSD) in 1% Blocker-A for 1 hour at room temperature with shaking. Assay plates were then washed and 150 μL of 1× Read Buffer-T (MSD) was added to each well prior to reading on an SQ120 MSD Plate Reader. Assay signal from each sample was subtracted by the signal from unstimulated control wells and normalized to DMSO control wells, IC50 values were calculated using Graph Pad Prism Dose-Response Nonlinear Regression with variable slope. For both pSTAT3 and pSTAT6 A=≤100 nM; B=>100-1000 nM; C=>1000-3000 nM; and D=>3 μM.

Experiment [2] addresses T1, Recombinant STAT3 protein (STAT3(G127-I722)) (Homo sapiens, UniProt P40763).
T1 construct: Recombinant STAT3 protein (STAT3(G127-I722))
The experiment is described as follows: STAT3 Fluorescence Polarization (FP) Assay. The conditions noted are these: 25 nM STAT3(G127-I722), 2 nM 5-FAM-GpYLPQTV-NH2 probe, pH 7.4, 45-minute incubation at room temperature. The class given is binding. The procedure:
An FP assay was developed to determine IC50 values for test substances. Recombinant STAT3 protein (STAT3(G127-I722)) at 25 nM was combined with a fluorescently labeled, phosphotyrosine peptide probe (5-FAM-GpYLPQTV-NH2) at 2 nM in FP buffer (10 mM HEPES pH 7.4, 50 mM NaCl. 1 mM EDTA, 0.05% Tween 20, 2 mM DTT). 50 μL of STAT3-probe mixture was added to serial diluted compounds in black, 96-well plates (Greiner BioOne 655076) to a final concentration of 1% DMSO. Reaction components were mixed, and FP was measured after 45-minute incubation at room temperature using a Tecan Spark multimode plate reader. FP signal (mP) was plotted against the log concentration of the test substances and IC50 values were calculated by nonlinear regression analysis using GraphPad Prism software. For STAT3 FP assay, A=≤100 nM; B=>100-1000 nM; C=>1-10 μM; and D=>10 μM.
(Fluorescence polarisation rises when a labelled molecule tumbles more slowly, as on binding a larger partner.)

In experiment [3] the target is T2, Recombinant STAT6 protein (STAT6(W123-T658)) (Homo sapiens, UniProt P42226).
T2 construct: Recombinant STAT6 protein (STAT6(W123-T658))
T2 sequence (P42226 123-658): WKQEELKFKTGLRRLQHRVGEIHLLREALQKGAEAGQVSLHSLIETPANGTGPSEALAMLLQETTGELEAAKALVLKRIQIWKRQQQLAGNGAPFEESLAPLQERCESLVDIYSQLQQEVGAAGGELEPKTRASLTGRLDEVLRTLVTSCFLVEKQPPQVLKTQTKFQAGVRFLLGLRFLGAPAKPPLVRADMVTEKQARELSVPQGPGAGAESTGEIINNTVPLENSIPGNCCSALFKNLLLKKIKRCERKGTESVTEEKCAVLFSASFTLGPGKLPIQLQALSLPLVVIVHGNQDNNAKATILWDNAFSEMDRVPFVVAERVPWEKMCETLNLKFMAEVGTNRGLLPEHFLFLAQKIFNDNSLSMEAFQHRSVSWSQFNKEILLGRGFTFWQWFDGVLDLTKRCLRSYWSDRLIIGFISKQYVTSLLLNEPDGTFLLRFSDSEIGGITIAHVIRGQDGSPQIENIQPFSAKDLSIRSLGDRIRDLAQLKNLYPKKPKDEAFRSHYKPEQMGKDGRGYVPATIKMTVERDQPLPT
The experiment is described as follows: STAT6 Fluorescence Polarization (FP) Assay. The class given is binding. The conditions noted are these: 250 nM STAT6(W123-T658), 2 nM 5-FAM-Ap[…]-NH2 probe, pH 7.4, 45-minute incubation at room temperature. The procedure: An FP assay was developed to determine IC50 values for test substances. Recombinant STAT6 protein (STAT6(W123-T658)) at 250 nM was combined with a fluorescently labeled, phosphotyrosine peptide probe (5-FAM-Ap[…]-NH2) at 2 nM in FP buffer (10 mM HEPES pH 7.4, 50 mM NaCl, 1 mM EDTA, 0.05% Tween 20, 2 mM DTT). 50 μL of STAT6-probe mixture was added to serial diluted compounds in black, 96-well plates (Greiner BioOne 655076) to a final concentration of 1% DMSO. Reaction components were mixed, and FP w as measured after 45-minute incubation at room temperature using a Tecan Spark multimode plate reader. FP signal (mP) was plotted against the log concentration of the test substances and IC50 values were calculated by nonlinear regression analysis using GraphPad Prism software. For STAT6 FP assay. A=≤300 nM; B=>300-3000 nM; C=>3-30 μM; and D=>30 μM.

T1 sequence (P40763 127-722): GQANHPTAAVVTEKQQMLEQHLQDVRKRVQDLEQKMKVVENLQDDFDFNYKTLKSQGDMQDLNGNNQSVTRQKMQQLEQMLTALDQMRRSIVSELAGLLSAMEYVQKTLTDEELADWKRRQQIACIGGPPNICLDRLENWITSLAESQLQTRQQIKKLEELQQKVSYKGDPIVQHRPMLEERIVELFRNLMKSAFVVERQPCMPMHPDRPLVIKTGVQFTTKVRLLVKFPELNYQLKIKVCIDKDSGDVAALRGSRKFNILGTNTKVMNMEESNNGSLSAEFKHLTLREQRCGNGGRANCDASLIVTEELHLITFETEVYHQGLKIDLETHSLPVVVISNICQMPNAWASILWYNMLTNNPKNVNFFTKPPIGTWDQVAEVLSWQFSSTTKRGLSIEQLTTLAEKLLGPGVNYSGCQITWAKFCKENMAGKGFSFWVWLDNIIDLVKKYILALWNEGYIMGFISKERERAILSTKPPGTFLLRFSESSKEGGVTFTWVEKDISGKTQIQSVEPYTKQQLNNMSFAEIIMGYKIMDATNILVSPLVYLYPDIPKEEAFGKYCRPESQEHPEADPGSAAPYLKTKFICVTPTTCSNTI

On to `N#CC1CN(C(=O)C2CCC3CC4CC4CC(NC(=O)c4cc5cc(C(F)(F)P(=O)(O)O)ccc5s4)C(=O)N32)CC1c1cccc(N2CCN(c3ccc4c(c3)[nH]c(=O)n4C3CCC(=O)NC3=O)CC2)c1` [Compound 13, ((2-(((3S,6S,7aS,8aR,9aR)-3-((rel-3S,4R)-3-cyano-4-(3-(4-(1-(2,6-dioxopiperidin-3-yl)-2-oxo-2,3-dihydro-1H-benzo[d]imidazol-5-yl)piperazin-1-yl)phenyl)pyrrolidine-1-carbonyl)-5-oxodecahydro-1H-cyclopropa[d]pyrrolo[1,2-a]azocin-6-yl)carbamoyl)benzo[b]thiophen-5-yl)difluoromethyl)phosphonic acid], for which the values for the IC50 in experiment [1], in experiment [2] and in experiment [3] were 0.1 to 1 µM, 0.1 to 1 µM and under 0.3 µM, respectively.

On to `N#CC1CN(C(=O)C2CCC3CC4CC4CC(NC(=O)c4cc5cc(C(F)(F)P(=O)(O)O)ccc5s4)C(=O)N32)CC1c1cccc(OCCCCOc2ccc(C3CCC(=O)NC3=O)cc2)c1` [Compound 3, ((2-(((3S,6S,7aS,8aR,9aR)-3-((rel-3S,4R)-3-cyano-4-(3-(4-(4-(2,6-dioxopiperidin-3-yl)phenoxy)butoxy)phenyl)pyrrolidine-1-carbonyl)-5-oxodecahydro-1H-cyclopropa[d]pyrrolo[1,2-a]azocin-6-yl)carbamoyl)benzo[b]thiophen-5-yl)difluoromethyl)phosphonic acid], for which the results for the 50% inhibitory concentration (IC50) in experiment [1], in experiment [2] and in experiment [3] were over 3 µM, 1 to 10 µM and 0.3 to 3 µM, respectively.

In the case of `O=C1CCC(N2Cc3c(OCCOCCOCCn4ccc([C@@H]5CN(C(=O)[C@@H]6CC[C@@H]7C[C@H]8C[C@H]8C[C@H](NC(=O)c8cc9cc(C(F)(F)P(=O)(O)O)ccc9s8)C(=O)N76)C6(CC6)C5)cc4=O)cccc3C2=O)C(=O)N1` (stereo partly drawn) [Compound 17, ((2-(((3S,6S,7aS,8aR,9aR)-3-((6R)-6-(1-(2-(2-(2-((2-(2,6-dioxopiperidin-3-yl)-1-oxoisoindolin-4-yl)oxy)ethoxy)ethoxy)ethyl)-2-oxo-1,2-dihydropyridin-4-yl)-4-azaspiro[2.4]heptane-4-carbonyl)-5-oxodecahydro-1H-cyclopropa[d]pyrrolo[1,2-a]azocin-6-yl)carbamoyl)benzo[b]thiophen-5-yl)difluoromethyl)phosphonic acid], the IC50 in experiment [1] was over 3 µM; in experiment [2] it was 1 to 10 µM; in experiment [3] it was 0.3 to 3 µM.

Turning to `O=C1CCC(n2c(=O)[nH]c3cc(N4CCC(n5ccc([C@@H]6CN(C(=O)[C@@H]7CC[C@@H]8C[C@H]9C[C@H]9C[C@H](NC(=O)c9cc%10cc(C(F)(F)P(=O)(O)O)ccc%10s9)C(=O)N87)C7(CC7)C6)cc5=O)CC4)ccc32)C(=O)N1` (stereo partly drawn) [Compound 19, ((2-(((3S,6S,7aS,8aR,9aR)-3-((6R)-6-(1-(1-(1-(2,6-dioxopiperidin-3-yl)-2-oxo-2,3-dihydro-1H-benzo[d]imidazol-5-yl)piperidin-4-yl)-2-oxo-1,2-dihydropyridin-4-yl)-4-azaspiro[2.4]heptane-4-carbonyl)-5-oxodecahydro-1H-cyclopropa[d]pyrrolo[1,2-a]azocin-6-yl)carbamoyl)benzo[b]thiophen-5-yl)difluoromethyl)phosphonic acid], the IC50 in experiment [1] is over 3 µM; in experiment [2], 0.1 to 1 µM; in experiment [3], 0.3 to 3 µM.

Consider `O=C1CCC(N2Cc3c(C#CCCCCCCn4ccc([C@@H]5CN(C(=O)[C@@H]6CC[C@@H]7C[C@H]8C[C@H]8C[C@H](NC(=O)c8cc9cc(C(F)(F)P(=O)(O)O)ccc9s8)C(=O)N76)C6(CC6)C5)cc4=O)cccc3C2=O)C(=O)N1` (stereo partly drawn) [Compound 5, ((2-(((3S,6S,7aS,8aR,9aR)-3-((6R)-6-(1-(8-(2-(2,6-dioxopiperidin-3-yl)-1-oxoisoindolin-4-yl)oct-7-yn-1-yl)-2-oxo-1,2-dihydropyridin-4-yl)-4-azaspiro[2.4]heptane-4-carbonyl)-5-oxodecahydro-1H-cyclopropa[d]pyrrolo[1,2-a]azocin-6-yl)carbamoyl)benzo[b]thiophen-5-yl)difluoromethyl)phosphonic acid], for which the IC50 in experiment [1] was in the range of 0.1 to 1 µM; in experiment [2], 0.1 to 1 µM; in experiment [3], 0.3 to 3 µM.

`O=C1CCC(c2ccc(OCCCCCn3ccc([C@@H]4CN(C(=O)[C@@H]5CC[C@@H]6C[C@H]7C[C@H]7C[C@H](NC(=O)c7cc8cc(C(F)(F)P(=O)(O)O)ccc8s7)C(=O)N65)C5(CC5)C4)cc3=O)cc2)C(=O)N1` (stereo partly drawn) [Compound 10, ((2-(((3S,6S,7aS,8aR,9aR)-3-((6R)-6-(1-(5-(4-(2,6-dioxopiperidin-3-yl)phenoxy)pentyl)-2-oxo-1,2-dihydropyridin-4-yl)-4-azaspiro[2.4]heptane-4-carbonyl)-5-oxodecahydro-1H-cyclopropa[d]pyrrolo[1,2-a]azocin-6-yl)carbamoyl)benzo[b]thiophen-5-yl)difluoromethyl)phosphonic acid]: the IC50 in experiment [1] was 1 to 3 µM; in experiment [2], 0.1 to 1 µM; in experiment [3], under 0.3 µM.

Turning to `N#CC1CN(C(=O)C2CCC3CC4CC4CC(NC(=O)c4cc5cc(C(F)(F)P(=O)(O)O)ccc5s4)C(=O)N32)CC1c1cccc(OCCOCCOc2cccc3c2CN(C2CCC(=O)NC2=O)C3=O)c1` [Compound 15, ((2-(((3S,6S,7aS,8aR,9aR)-3-((rel-3S,4R)-3-cyano-4-(3-(2-(2-((2-(2,6-dioxopiperidin-3-yl)-1-oxoisoindolin-4-yl)oxy)ethoxy)ethoxy)phenyl)pyrrolidine-1-carbonyl)-5-oxodecahydro-1H-cyclopropa[d]pyrrolo[1,2-a]azocin-6-yl)carbamoyl)benzo[b]thiophen-5-yl)difluoromethyl)phosphonic acid], the IC50 was over 3 µM in experiment [1], 0.1 to 1 µM in experiment [2] and under 0.3 µM in experiment [3].
